The numbers were not newly measured in patent US20050238616A1, “Compositions for treatment of central nervous system neoplasms, and methods of making and using the same” (Guilford Pharmaceuticals, Inc., priority 2002, published 2005), which cites them from elsewhere.

For the series, the system named is human glioma cell lines. The conditions noted are these: several human glioma cell lines in vitro.

Structures are written as SMILES.

Take `CC(=O)O[C@H]1C(=O)[C@@]2(C)[C@H]([C@H](OC(=O)c3ccccc3)[C@]3(O)C[C@H](OC(=O)[C@H](O)[C@@H](NC(=O)c4ccccc4)c4ccccc4)C(C)=C1C3(C)C)[C@]1(OC(C)=O)CO[C@@H]1C[C@@H]2O` [paclitaxel]: the LD90 was 5 to 10 nM.
